One experiment deals with T1, EGFR L858R (Homo sapiens, UniProt P00533, L858R).
T1 construct: purchased SignalChem E10-122BG
Description: Biochemical EGFR inhibition assay (Caliper mobility shift), EGFR L858R. The settings on record: biochemical Caliper mobility shift assay, EGFR L858R enzyme; read-out: Enz EGFR L858R IC50. The method, boiled down: (§1)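 Recombinant mutant enzyme, 2.5 µM fluorescent peptide, ATP at 1.0 mM or Km, 1.0% DMSO, 25 °C. Stopped with EDTA once 10–20% of peptide was phosphorylated; apparent IC50 derived from electrophoretic product/substrate separation.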

In experiment [1] the target is intracellular phosphorylation of EGFR (Tyr1068) in PC-9 cells (Homo sapiens, UniProt P00533, DEL746-750). Description: PC-9 pEGFR AlphaLISA assay. The settings on record: 4 hours incubation, read-out: Phos EGFR PC9 IC50. The format is cell-based. The method, boiled down: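 PC-9 cells (EGFR del746-750) in phenol-free DMEM/10% FBS, adhered overnight, then exposed to 10-point 4-fold compound dilutions for 4 h at 37 °C. Lysates assayed for pEGFR Tyr1068 by AlphaLISA SureFire Ultra; IC50 from percent pEGFR inhibition vs log concentration.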
Background: Bead proximity is the source of the signal in Alpha formats.

Another experiment has as its target T2, EGFR (d746-750) (Homo sapiens, UniProt P00533, DEL746-750).
T2 construct: purchased SignalChem E10-122JG
Description: Biochemical EGFR inhibition assay (Caliper mobility shift), EGFR (d746-750). The note with it: biochemical Caliper mobility shift assay, EGFR Exon 19-del enzyme; read-out: Enz EGFR Exon 19-del IC50. The method, boiled down:
as §1

T2 sequence (P00533 with tags, fused parts or gaps DEL746-750 limits assumed): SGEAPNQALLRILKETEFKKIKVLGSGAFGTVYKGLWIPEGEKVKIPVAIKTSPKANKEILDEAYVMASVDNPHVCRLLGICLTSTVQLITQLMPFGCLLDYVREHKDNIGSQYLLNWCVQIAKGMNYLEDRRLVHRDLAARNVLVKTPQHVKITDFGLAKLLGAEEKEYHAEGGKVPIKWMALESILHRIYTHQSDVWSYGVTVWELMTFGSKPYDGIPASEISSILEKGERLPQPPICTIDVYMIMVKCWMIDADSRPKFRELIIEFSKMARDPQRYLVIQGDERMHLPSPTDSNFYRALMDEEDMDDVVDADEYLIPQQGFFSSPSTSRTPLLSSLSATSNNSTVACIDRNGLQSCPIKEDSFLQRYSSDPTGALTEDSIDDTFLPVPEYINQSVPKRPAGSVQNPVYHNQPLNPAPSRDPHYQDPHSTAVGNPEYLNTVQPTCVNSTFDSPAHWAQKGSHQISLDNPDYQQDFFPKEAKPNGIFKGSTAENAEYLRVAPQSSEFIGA
Sequence of intracellular phosphorylation of EGFR (Tyr1068) in PC-9 cells (P00533 with tags, fused parts or gaps DEL746-750): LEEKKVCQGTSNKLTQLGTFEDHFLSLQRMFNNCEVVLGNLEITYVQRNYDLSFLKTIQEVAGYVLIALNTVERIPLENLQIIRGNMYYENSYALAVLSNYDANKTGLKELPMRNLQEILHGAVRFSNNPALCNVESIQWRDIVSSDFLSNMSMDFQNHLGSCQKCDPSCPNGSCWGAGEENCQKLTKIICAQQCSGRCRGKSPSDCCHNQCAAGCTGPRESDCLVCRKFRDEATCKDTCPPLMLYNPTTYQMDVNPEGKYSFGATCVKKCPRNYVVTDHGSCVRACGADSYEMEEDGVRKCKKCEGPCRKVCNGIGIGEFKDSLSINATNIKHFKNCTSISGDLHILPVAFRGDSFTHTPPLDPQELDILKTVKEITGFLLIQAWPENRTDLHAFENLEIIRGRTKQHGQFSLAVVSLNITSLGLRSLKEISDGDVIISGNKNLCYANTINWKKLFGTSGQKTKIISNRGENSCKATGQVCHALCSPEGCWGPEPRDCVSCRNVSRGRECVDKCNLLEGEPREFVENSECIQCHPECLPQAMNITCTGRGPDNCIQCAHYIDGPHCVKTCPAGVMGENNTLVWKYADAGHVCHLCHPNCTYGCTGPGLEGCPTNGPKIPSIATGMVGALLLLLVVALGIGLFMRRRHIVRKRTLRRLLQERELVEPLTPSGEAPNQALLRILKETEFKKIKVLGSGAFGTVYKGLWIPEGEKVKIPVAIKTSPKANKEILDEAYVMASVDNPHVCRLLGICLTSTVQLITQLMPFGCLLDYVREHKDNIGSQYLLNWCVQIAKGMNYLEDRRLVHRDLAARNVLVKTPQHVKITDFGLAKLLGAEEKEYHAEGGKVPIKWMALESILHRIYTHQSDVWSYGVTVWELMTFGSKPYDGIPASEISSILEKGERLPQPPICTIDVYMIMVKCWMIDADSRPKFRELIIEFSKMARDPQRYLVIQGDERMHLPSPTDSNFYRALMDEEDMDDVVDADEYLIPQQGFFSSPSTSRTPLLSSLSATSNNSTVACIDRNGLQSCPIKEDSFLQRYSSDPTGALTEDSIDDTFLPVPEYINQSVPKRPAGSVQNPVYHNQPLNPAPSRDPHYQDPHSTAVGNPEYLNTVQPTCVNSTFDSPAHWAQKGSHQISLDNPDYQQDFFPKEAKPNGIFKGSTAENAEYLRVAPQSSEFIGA
T1 sequence (P00533 25-1210 L858R): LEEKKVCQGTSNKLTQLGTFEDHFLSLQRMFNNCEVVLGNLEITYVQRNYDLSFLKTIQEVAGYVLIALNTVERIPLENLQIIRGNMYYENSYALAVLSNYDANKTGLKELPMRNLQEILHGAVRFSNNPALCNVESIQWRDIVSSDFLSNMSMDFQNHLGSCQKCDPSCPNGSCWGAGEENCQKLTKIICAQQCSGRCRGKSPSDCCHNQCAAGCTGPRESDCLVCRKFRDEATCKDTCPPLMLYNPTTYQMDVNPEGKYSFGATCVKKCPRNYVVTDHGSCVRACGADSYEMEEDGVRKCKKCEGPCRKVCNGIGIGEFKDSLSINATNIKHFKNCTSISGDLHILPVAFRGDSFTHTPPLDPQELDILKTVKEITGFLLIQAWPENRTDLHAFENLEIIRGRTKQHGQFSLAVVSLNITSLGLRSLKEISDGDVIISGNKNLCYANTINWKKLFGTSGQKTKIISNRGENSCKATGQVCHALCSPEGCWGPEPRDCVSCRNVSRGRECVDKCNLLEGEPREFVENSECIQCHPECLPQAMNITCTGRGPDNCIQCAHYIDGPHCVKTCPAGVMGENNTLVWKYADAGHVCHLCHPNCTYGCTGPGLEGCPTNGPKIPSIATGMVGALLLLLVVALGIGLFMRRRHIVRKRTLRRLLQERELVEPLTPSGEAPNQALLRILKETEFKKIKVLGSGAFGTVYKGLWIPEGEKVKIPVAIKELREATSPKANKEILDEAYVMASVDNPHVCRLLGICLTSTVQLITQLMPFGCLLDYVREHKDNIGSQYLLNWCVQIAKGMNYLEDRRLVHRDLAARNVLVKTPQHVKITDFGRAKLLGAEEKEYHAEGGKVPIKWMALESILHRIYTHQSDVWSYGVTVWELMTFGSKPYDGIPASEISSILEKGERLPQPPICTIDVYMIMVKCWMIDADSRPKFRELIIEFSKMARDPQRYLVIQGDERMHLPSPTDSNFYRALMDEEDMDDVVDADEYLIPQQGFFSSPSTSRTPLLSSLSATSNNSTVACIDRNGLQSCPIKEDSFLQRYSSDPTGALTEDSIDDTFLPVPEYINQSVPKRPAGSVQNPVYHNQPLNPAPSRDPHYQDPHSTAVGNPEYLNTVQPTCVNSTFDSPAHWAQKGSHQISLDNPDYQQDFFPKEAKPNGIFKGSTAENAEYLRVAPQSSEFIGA

Broadly, the IC50 is the concentration that inhibits the measured activity by half. As to `CN1CCC(Oc2cc(-c3ccc(S(C)(=O)=O)cc3)cc3ncnc(Nc4ccc5ncsc5c4)c23)CC1` [Example 243, N-(5-((1-methylpiperidin-4-yl)oxy)-7-(4-(methylsulfonyl)phenyl)quinazolin-4-yl)benzo[d]thiazol-6-amine], the IC50 (on EGFR L858R; in experiment [1]; at EGFR (d746-750)) was 10.1 to 50 nM in each case.

`COc1cn(C)nc1-c1cc(O[C@H]2CCCN(C)C2)c2c(Nc3ccc4ncsc4c3)ncnc2c1` [Example 245, (S)-N-(7-(4-methoxy-1-methyl-1H-pyrazol-3-yl)-5-((1-methylpiperidin-3-yl)oxy)quinazolin-4-yl)benzo[d]thiazol-6-amine]: the IC50 at EGFR L858R was ≤ 10 nM; in experiment [1], 10.1 to 50 nM; at EGFR (d746-750) it was ≤ 10 nM.

In the case of `COc1cn(C)nc1-c1cc(O[C@H]2CCCN(C)C2)c2c(Nc3ccc4ncsc4c3F)ncnc2c1` [Example 246, (S)-7-fluoro-N-(7-(4-methoxy-1-methyl-1H-pyrazol-3-yl)-5-((1-methylpiperidin-3-yl)oxy)quinazolin-4-yl)benzo[d]thiazol-6-amine], the IC50 on EGFR L858R is ≤ 10 nM; in experiment [1] it was 10.1 to 50 nM; on EGFR (d746-750), ≤ 10 nM.

As to `CN1CCC[C@H](Oc2cc(-c3cn(C)nn3)cc3ncnc(Nc4ccc5ncsc5c4)c23)C1` [Example 247, (S)-N-(7-(1-methyl-1H-1,2,3-triazol-4-yl)-5-((1-methylpiperidin-3-yl)oxy)quinazolin-4-yl)benzo[d]thiazol-6-amine], the IC50 at EGFR L858R was ≤ 10 nM; in experiment [1], 10.1 to 50 nM; at EGFR (d746-750) it was ≤ 10 nM.

For the molecule `CN1CCC[C@H](Oc2cc(-c3cn(C)nc3OC(F)F)cc3ncnc(Nc4ccc5ncsc5c4)c23)C1` [Example 248, (S)-N-(7-(3-(difluoromethoxy)-1-methyl-1H-pyrazol-4-yl)-5-((1-methylpiperidin-3-yl)oxy)quinazolin-4-yl)benzo[d]thiazol-6-amine], the IC50 was 10.1 to 50 nM on EGFR L858R, 10.1 to 50 nM in experiment [1] and ≤ 10 nM on EGFR (d746-750).

Consider `CN1CCC[C@H](Oc2cc(-c3cn(C)n(C(F)F)c3=O)cc3ncnc(Nc4ccc5ncsc5c4)c23)C1` [Example 249, (S)-4-(4-(benzo[d]thiazol-6-ylamino)-5-((1-methylpiperidin-3-yl)oxy)quinazolin-7-yl)-2-(difluoromethyl)-1-methyl-1,2-dihydro-3H-pyrazol-3-one], for which the figures for the IC50 (on EGFR L858R; in experiment [1]; on EGFR (d746-750)) were ≤ 10 nM, 10.1 to 50 nM and ≤ 10 nM, respectively.

`Cn1cc(-c2cc(OC3COC3)c3c(Nc4ccc5ncsc5c4)ncnc3c2)c(OC(F)F)n1` [Example 250, N-(7-(3-(difluoromethoxy)-1-methyl-1H-pyrazol-4-yl)-5-(oxetan-3-yloxy)quinazolin-4-yl)benzo[d]thiazol-6-amine]: the IC50 is ≤ 10 nM on EGFR L858R, 10.1 to 50 nM in experiment [1] and ≤ 10 nM at EGFR (d746-750).

Consider `COc1cc2ncnc(Nc3ccc4ncsc4c3)c2cc1NC(=O)N1C[C@H]2CCN(C)[C@H]2C1` [Example 251, (3aR,6aR)-N-(4-(benzo[d]thiazol-6-ylamino)-7-methoxyquinazolin-6-yl)-1-methylhexahydropyrrolo[3,4-b]pyrrole-5(1H)-carboxamide], for which the IC50 is ≤ 10 nM at EGFR L858R, 10.1 to 50 nM in experiment [1] and ≤ 10 nM at EGFR (d746-750).

Take `CN1CC[C@@H]2CN(C(=O)Nc3cc4c(Nc5ccc6ncsc6c5)ncnc4cc3-c3ccn(C)n3)C[C@@H]21` [Example 252, (3aR,6aR)-N-(4-(benzo[d]thiazol-6-ylamino)-7-(1-methyl-1H-pyrazol-3-yl)quinazolin-6-yl)-1-methylhexahydropyrrolo[3,4-b]pyrrole-5(1H)-carboxamide]: the IC50 (at EGFR L858R; in experiment [1]; at EGFR (d746-750)) was ≤ 10 nM each time.

Turning to `CCN1CCN(C(=O)Nc2cc3c(Nc4ccc5ncsc5c4)ncnc3cc2-c2ccn(C)n2)CC1` [Example 253, N-(4-(benzo[d]thiazol-6-ylamino)-7-(1-methyl-1H-pyrazol-3-yl)quinazolin-6-yl)-4-ethylpiperazine-1-carboxamide], the IC50 (on EGFR L858R; in experiment [1]; at EGFR (d746-750)) was ≤ 10 nM each time.

Regarding `CC(C)Oc1cc(-c2cnn(C)c2)cc2ncnc(Nc3ccc4scnc4c3)c12` [Example 254, N-(5-isopropoxy-7-(1-methyl-1H-pyrazol-4-yl)quinazolin-4-yl)benzo[d]thiazol-5-amine], the IC50 was ≤ 10 nM at EGFR L858R, 10.1 to 50 nM in experiment [1] and ≤ 10 nM at EGFR (d746-750).

Turning to `C[C@@H]1CN(C)CCN1C(=O)Nc1cc2c(Nc3ccc4ncsc4c3)ncnc2cc1-c1ccn(C)n1` [Example 255, (R)-N-(4-(benzo[d]thiazol-6-ylamino)-7-(1-methyl-1H-pyrazol-3-yl)quinazolin-6-yl)-2,4-dimethylpiperazine-1-carboxamide], the IC50 (at EGFR L858R; in experiment [1]; at EGFR (d746-750)) was ≤ 10 nM in each case.

On to `CCC(=O)N1CCC(Nc2cc3c(Nc4ccc5ncsc5c4)ncnc3cc2-c2ccn(C)n2)CC1` [Example 257, 1-(4-((4-(benzo[d]thiazol-6-ylamino)-7-(1-methyl-1H-pyrazol-3-yl)quinazolin-6-yl)amino)piperidin-1-yl)propan-1-one], for which the IC50 (at EGFR L858R; in experiment [1]; at EGFR (d746-750)) was ≤ 10 nM each time.

Turning to `CN1CCC(Nc2cc3c(Nc4ccc5ncsc5c4)ncnc3cc2-c2ccn(C)n2)CC1` [Example 258, N4-(benzo[d]thiazol-6-yl)-7-(1-methyl-1H-pyrazol-3-yl)-N6-(1-methylpiperidin-4-yl)quinazoline-4,6-diamine], the IC50 (at EGFR L858R; in experiment [1]; on EGFR (d746-750)) was ≤ 10 nM each time.

For the molecule `Cn1cc(-c2cc(OC3CC3)c3c(Nc4ccc5ncsc5c4)ncnc3c2)cn1` [Example 259, N-(5-cyclopropoxy-7-(1-methyl-1H-pyrazol-4-yl)quinazolin-4-yl)benzo[d]thiazol-6-amine], the IC50 (on EGFR L858R; in experiment [1]; on EGFR (d746-750)) was ≤ 10 nM each time.

With `CCC(=O)N1CCC(Oc2cc3c(Nc4ccc5ncsc5c4)ncnc3cc2OC)CC1` [Example 260, 1-(4-((4-(benzo[d]thiazol-6-ylamino)-7-methoxyquinazolin-6-yl)oxy)piperidin-1-yl)propan-1-one], the IC50 at EGFR L858R was ≤ 10 nM; in experiment [1], 10.1 to 50 nM; on EGFR (d746-750) it was ≤ 10 nM.

For the molecule `Cn1cc(-c2cc3ncnc(Nc4ccc5ncsc5c4F)c3cc2OC2CCOC2)cn1` (stereo not drawn) [Example 261, 7-fluoro-N-(7-(1-methyl-1H-pyrazol-4-yl)-6-((tetrahydrofuran-3-yl)oxy)quinazolin-4-yl)benzo[d]thiazol-6-amine], the IC50 (at EGFR L858R; in experiment [1]; at EGFR (d746-750)) was ≤ 10 nM each time.

For the molecule `Cn1cc(-c2cc3ncnc(Nc4ccc5ncsc5c4F)c3cc2OC2CCOCC2)cn1` [Example 262, 7-fluoro-N-(7-(1-methyl-1H-pyrazol-4-yl)-6-((tetrahydro-2H-pyran-4-yl)oxy)quinazolin-4-yl)benzo[d]thiazol-6-amine], the IC50 (on EGFR L858R; in experiment [1]; on EGFR (d746-750)) was ≤ 10 nM each time.

Regarding `COc1cc2c(Nc3ccc4ncsc4c3)ncnc2cc1-c1cnn(C)c1` [Example 263, N-(6-methoxy-7-(1-methyl-1H-pyrazol-4-yl)quinazolin-4-yl)benzo[d]thiazol-6-amine], the IC50 (at EGFR L858R; in experiment [1]; on EGFR (d746-750)) was ≤ 10 nM each time.

As to `COc1cc2c(Nc3ccc4ncsc4c3F)ncnc2cc1-c1cn(C)nc1OC` [Example 264, 7-fluoro-N-(6-methoxy-7-(3-methoxy-1-methyl-1H-pyrazol-4-yl)quinazolin-4-yl)benzo[d]thiazol-6-amine], the values for the IC50 (at EGFR L858R; in experiment [1]; at EGFR (d746-750)) were ≤ 10 nM, 10.1 to 50 nM and ≤ 10 nM, respectively.

With `Cn1ccc(-c2cc3ncnc(Nc4ccc5ncsc5c4)c3cc2NC2CCNCC2)n1` [Example 266, N4-(benzo[d]thiazol-6-yl)-7-(1-methyl-1H-pyrazol-3-yl)-N6-(piperidin-4-yl)quinazoline-4,6-diamine], the values for the IC50 (at EGFR L858R; in experiment [1]; on EGFR (d746-750)) were ≤ 10 nM, 10.1 to 50 nM and ≤ 10 nM, respectively.

In the case of `Cn1cc(-c2cc(OCC(=O)N3CC4(COC4)C3)c3c(Nc4ccc5ncsc5c4)ncnc3c2)cn1` [Example 270, 2-((4-(benzo[d]thiazol-6-ylamino)-7-(1-methyl-1H-pyrazol-4-yl)quinazolin-5-yl)oxy)-1-(2-oxa-6-azaspiro[3.3]heptan-6-yl)ethan-1-one], the IC50 on EGFR L858R is ≤ 10 nM; in experiment [1], 10.1 to 50 nM; on EGFR (d746-750), ≤ 10 nM.

For `Cn1cc(-c2cc(OCC(=O)N3CCC3)c3c(Nc4ccc5ncsc5c4)ncnc3c2)cn1` [Example 271, 1-(azetidin-1-yl)-2-((4-(benzo[d]thiazol-6-ylamino)-7-(1-methyl-1H-pyrazol-4-yl)quinazolin-5-yl)oxy)ethan-1-one], the IC50 at EGFR L858R is ≤ 10 nM; in experiment [1], 10.1 to 50 nM; on EGFR (d746-750) it was ≤ 10 nM.
